Results on five compounds are retold here after US11309064B2, “Individualized dosing technique with multiple variables” (priority 2017, dated 2022).

One data set relates to plasma proteins. Conditions: cited from earlier work.
Another data set concerns blood glucose. The experiment in a line: Software readout, predicted blood glucose for an insulin dose (Example 6). The arrangement: species or system patient. Conditions: 100 units Subcutaneous every 24 hrs. An excerpt: A diabetes patient tells the health care provider their average daily blood glucose value. A health care provider can do this over a phone or via the Internet. A physical exam, review of biological systems, and medicine reconciliation is done and the information is put into software program. Then, for example, the software may have readout of “Given the data collected, the dose of 100 units of insulin Subcutaneous every 24 hrs will result in blood glucose of between 90-150 with a 50%-90% possibility if compliant with medications and no other variables change.”

Data set [1] relates to INR. The experiment in a line: INR lab value at clinic visits under Warfarin (Example 4). It counts as in vivo, patient.
Data set [2] deals with INR. The experiment in a line: Software readout, predicted INR for a Warfarin dose (Example 5). The arrangement: species or system patient. Conditions: 5 mg by mouth every 24 hours. An excerpt: The nurse takes their INR lab value and enters it into a software program. The health care provider has the software open on a computer or a hand held device. Then the provider asks the patient the relevant questions, does a physical exam and inputs this into the electronic form.

Data set [3] deals with patients with nonvalvular AF. The following applies: long-term anticoagulation therapy; cited from earlier work.
Data set [4] relates to INR. The experiment in a line: INR and individual INR/Warfarin dose equation (Examples 7 and 8).

As to `CC/C(=C(\c1ccccc1)c1ccc(OCCN(C)C)cc1)c1ccccc1` [Tamoxifen], in the data set with plasma proteins, the protein binding entry is “Tamoxifen and Warfarin are highly protein bound. Tamoxifen”.

As for insulin, the predicted blood glucose in the data set with blood glucose is given as 90-150.

Take `CC(=O)CC(c1ccccc1)c1c(O)c2ccccc2oc1=O` (racemic) [Warfarin]: the INR is 4.3 with INR [1] (1 month later on 5 mg Warfarin, Lasix 40 mg every 24 hours, over 3 glasses of wine last evening); 3.4 in the data set with INR [1] (1 week on 7 mg Warfarin by mouth everyday, with HCTZ 25 mg, Doxycycline 100 mg every 12 hours, some aspirin); 2.3 with INR [1] (2 weeks after restart at 5 mg Warfarin, Lasix 60 mg a day, 73 kg, antidepressant); 2.5 in the data set on INR [1] (2 weeks on 5 mg Warfarin every day, HCTZ 25 mg only); around 3 in the data set on INR [4] (Lasix 30 mg/day and Warfarin 7.5 mg/day); 2.5 in the data set on INR [4] (Warfarin 7.5 mg, 1 week after start of amoxicillin 500 mg / clavulanate 250 mg 3 times a day). The INR in the data set on INR [4] (Warfarin 7.5 mg, next office visit after amoxicillin/clavulanate) amounted to 6; with INR [4] (a week later again), 9; in the data set on INR [4] (after Warfarin stopped, blood transfusion and a dose of Vitamin K) it was 3.5. Moreover, the “predicted INR” value in the data set with INR [2] was 2-3. Further, the “reduction of the risk for ischemic stroke” value in data set [3] is “approximately 68%”. For the same compound, the “observed INR” value in the data set with INR [4] (after Lasix increased to 60 mg/day, Warfarin dose from earlier formula) is recorded as 4-5.

In the case of `CC(=O)O[C@H]1C(=O)[C@@]2(C)[C@H]([C@H](OC(=O)c3ccccc3)[C@]3(O)C[C@H](OC(=O)[C@H](O)[C@@H](NC(=O)c4ccccc4)c4ccccc4)C(C)=C1C3(C)C)[C@]1(OC(C)=O)CO[C@@H]1C[C@@H]2O` [paclitaxel], the protein binding entry with plasma proteins is “Highly protein bound. Interacts with other protein-bound drugs”.

Consider `COc1cc([C@@H]2c3cc4c(cc3[C@@H](O[C@@H]3O[C@@H]5CO[C@@H](C)O[C@H]5[C@H](O)[C@H]3O)[C@H]3COC(=O)[C@H]23)OCO4)cc(OC)c1O` [etoposide], for which, in the data set on plasma proteins, the protein binding entry is “Highly protein bound. Interacts with other protein-bound drugs”.
